In patent US8134015B2, “Compound inhibiting in vivo phosphorous transport and medicine containing the same” (Kyowa Hakko Kirin Co., Ltd., priority 2003, dated 2012):

Biological target: T1, rat NaPi-2b (Rattus norvegicus, UniProt Q9JJ09)
T1 construct: expressed in transfected cells; host or cells: Xenopus oocytes injected with cRNA
T1 sequence (Q9JJ09 1-695): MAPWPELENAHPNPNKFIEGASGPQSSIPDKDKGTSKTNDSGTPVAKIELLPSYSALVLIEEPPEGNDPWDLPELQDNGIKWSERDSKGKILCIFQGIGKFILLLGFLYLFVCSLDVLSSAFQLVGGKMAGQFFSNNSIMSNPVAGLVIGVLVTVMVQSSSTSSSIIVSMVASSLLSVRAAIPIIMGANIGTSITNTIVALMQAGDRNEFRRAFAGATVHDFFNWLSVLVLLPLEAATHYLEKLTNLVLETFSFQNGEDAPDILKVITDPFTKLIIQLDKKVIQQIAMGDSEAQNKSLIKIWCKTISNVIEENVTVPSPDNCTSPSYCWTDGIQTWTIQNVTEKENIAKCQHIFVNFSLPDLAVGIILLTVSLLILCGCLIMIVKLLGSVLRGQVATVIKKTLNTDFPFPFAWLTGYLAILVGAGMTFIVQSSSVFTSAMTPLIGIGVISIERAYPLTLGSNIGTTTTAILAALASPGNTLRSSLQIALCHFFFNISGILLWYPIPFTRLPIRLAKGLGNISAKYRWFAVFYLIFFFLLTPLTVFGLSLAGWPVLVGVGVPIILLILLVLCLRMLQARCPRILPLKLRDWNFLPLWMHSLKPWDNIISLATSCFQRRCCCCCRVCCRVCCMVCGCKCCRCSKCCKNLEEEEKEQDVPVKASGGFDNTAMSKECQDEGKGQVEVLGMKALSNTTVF
Test: Sodium-dependent phosphate uptake of Xenopus oocytes which expressed NaPi-2b (32P)
Type: cell-based
Conditions: for IC50: Xenopus oocytes expressing rat NaPi-2b, 32P radioactive phosphorus, read-out: IC50 (phosphate uptake inhibitory activity); for inhibition at 300 µM: phosphate uptake, oocytes expressing rat NaPi-2b, determined from inhibition curve
Outline: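 Rat NaPi-2b cloned from small-intestine cDNA; cRNA injected into Xenopus oocytes, expression for 2 days. Phosphate uptake inhibition measured with 32P; percent inhibition at 300 μM and 100 μM read from the same inhibition curve.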

Row | Structure (SMILES) | IC50 [µM] | inhibition at 300 µM [%]
1 | Cc1ccc(/C=N/NC(=O)c2cc(Br)ccc2NC(=O)c2ccco2)cc1C [Compound 155, Furan-2-carboxylic acid [4-bromo-2-(3,4-dimethyl-benzylidene-hydrazinocarbonyl)-phenyl]-amide] | 0.32 | 
2 | Cc1ccc(/C=N/NC(=O)c2cc(Cl)ccc2NC(=O)c2cccc(CSCCS(=O)(=O)O)c2)cc1 [Compound 693, 2-{3-[4-Chloro-2-(4-methyl-benzylidene-hydrazinocarbonyl)-phenylcarbamoyl]-benzylsulfanyl}-ethanesulfonic acid] | 70.2 | 
3 | Cc1ccc(CNNC(=O)c2ccccc2NC(=O)c2ccncc2)cc1 [Compound 545, N-{2-[N′-(4-Methyl-benzyl)-hydrazinocarbonyl]-phenyl}-isonicotinamide] |  | 88.8
4 | Cc1ccc(/C=N/NC(=O)c2cc(Br)ccc2NC(=O)c2ccccn2)cc1 [Compound 498, Pyridin-2-carboxylic acid [4-bromo-2-(4-methyl-benzylidene-hydrazinocarbonyl)-phenyl]-amide] | 0.6 | 
5 | Cc1ccc(/C=N/NC(=O)c2scc(C)c2NC(=O)c2cccc(CN3CCC(N4CCCCC4)CC3)c2)cc1C [Compound 345, 3-[1,4′]Bipiperidinyl-1′-ylmethyl-N-[2-(3,4-dimethyl-benzylidene-hydrazinocarbonyl)-4-methyl-thiophen-3-yl]-benzamide] | 130 | 
6 | Cc1ccc(/C=N/NC(=O)c2cc3ccccc3cc2NC(=O)c2cccc(CN3CCN(CCO)CC3)c2)cc1C [Compound 971, N-[3-(3,4-Dimethyl-benzylidene-hydrazinocarbonyl)-naphthalen-2-yl]-3-[4-(2-hydroxy-ethyl)-piperazin-1-ylmethyl]-benzamide] | < 3 | 
7 | CCSCCNCc1ccc(C(=O)Nc2ccc(Br)cc2C(=O)N/N=C/c2ccc(OC)cc2)cc1 [Compound 770, N-[4-Bromo-2-(4-methoxy-benzylidene-hydrazinocarbonyl)-phenyl]-4-[(2-ethylsulfanyl-ethylamino)-methyl]-benzamide] | 16.5 | 
8 | COc1ccc(C(=O)Nc2ccccc2C(=O)N/N=C/c2ccc([N+](=O)[O-])cc2)cc1OC [Compound 240, 3,4-Dimethoxy-N-[2-(4-nitro-benzylidene-hydrazinocarbonyl)-phenyl]-benzamide] |  | 37.9
9 | Cc1ccc(/C=N/NC(=O)c2scc(C)c2NC(=O)c2cccc(CN3CCN(CCO)CC3)c2)cc1 [Compound 533, 3-[4-(2-Hydroxy-ethyl)-piperazin-1-ylmethyl]-N-[4-methyl-2-(4-methyl-benzylidene-hydrazinocarbonyl)-thiophen-3-yl]-benzamide] |  | 36.9
10 | COc1ccc(/C=N/NC(=O)c2cc(OCCCCF)ccc2NC(=O)c2cccc(CSCCO)c2)cc1 [Compound 1055, N-[4-(4-Fluoro-butoxy)-2-(4-methoxy-benzylidene-hydrazinocarbonyl)-phenyl]-3-(2-hydroxy-ethylsulfanylmethyl)-benzamide] | 1.96 | 

The next lines start with the values.

Row | IC50 [µM] | inhibition at 300 µM [%] | Structure (SMILES)
11 | 5.57 |  | CCN(CCO)Cc1cccc(C(=O)Nc2ccc(Cl)cc2C(=O)N/N=C/c2ccc(O)cc2)c1 [Compound 431, N-[4-Chloro-2-(4-hydroxy-benzylidene-hydrazinocarbonyl)-phenyl]-3-{[ethyl-(2-hydroxy-ethyl)-amino]-methyl}-benzamide]
12 | 1.02 |  | CCN(CC)CCN(CCN(CC)CC)Cc1cccc(C(=O)Nc2ccc(N3CCCCC3)cc2C(=O)N/N=C/c2ccc(Cl)c(C(F)(F)F)c2)c1 [Compound 909, 3-{[Bis-(2-diethylamino-ethyl)-amino]-methyl}-N-[2-(4-chloro-3-trifluoromethyl-benzylidene-hydrazinocarbonyl)-4-piperidin-1-yl-phenyl]-benzamide]
13 | 7.94 |  | CN(C)CCn1nnnc1SCc1cccc(C(=O)Nc2ccc(Cl)cc2C(=O)N/N=C/c2ccc(Cl)c(C(F)(F)F)c2)c1 [Compound 467, N-[4-Chloro-2-(4-chloro-3-trifluoromethyl-benzylidene-hydrazinocarbonyl)-phenyl]-3-[1-(2-dimethylamino-ethyl)-1H-tetrazol-5-ylsulfanylmethyl]-benzamide]
14 |  | 30.3 | CCN(CC)CCNCc1cccc(C(=O)Nc2c(C)csc2C(=O)N/N=C/c2cccc(F)c2)c1 [Compound 538, 3-[(2-Diethylamino-ethylamino)-methyl]-N-[2-(3-fluoro-benzylidene-hydrazinocarbonyl)-4-methyl-thiophen-3-yl]-benzamide]
15 | < 3 |  | CCN(CC)CCN(CCN(CC)CC)Cc1cccc(C(=O)Nc2sc3c(c2C(=O)N/N=C/c2ccc(Cl)c(C(F)(F)F)c2)CCCC3)c1 [Compound 849, 3-{[Bis-(2-diethylamino-ethyl)-amino]-methyl}-N-[3-(4-chloro-3-trifluoromethyl-benzylidene-hydrazinocarbonyl)-4,5,6,7-tetrahydro-benzo[b]thiophen-2-yl]-benzamide]
16 | 14.6 |  | CCN(CC)CCN(C)Cc1cccc(C(=O)Nc2scc(C)c2C(=O)N/N=C/c2cccc(F)c2)c1 [Compound 566, 3-{[(2-Diethylamino-ethyl)-methyl-amino]-methyl}-N-[3-(3-fluoro-benzylidene-hydrazinocarbonyl)-4-methyl-thiophen-2-yl]-benzamide]
17 | 29.1 |  | CCN(CC)CCN(C)Cc1cccc(C(=O)Nc2cc(OCCOC)c(OCCOC)cc2C(=O)N/N=C/c2cccc(F)c2)c1 [Compound 1028, 3-{[(2-Diethylamino-ethyl)-methyl-amino]-methyl}-N-[2-(3-fluoro-benzylidene-hydrazinocarbonyl)-4,5-bis-(2-methoxy-ethoxy)-phenyl]-benzamide]
18 | 3.31 |  | COc1cccc(/C=N/NC(=O)c2ccccc2NC(=O)c2ccc(OC)c(OC)c2)c1 [Compound 5, 3,4-Dimethoxy-N-[2-(3-methoxy-benzylidene-hydrazinocarbonyl)-phenyl]-benzamide]
19 | 9.51 |  | COc1ccc(C(=O)Nc2ccc(Cl)cc2C(=O)N/N=C/c2ccc(O)cc2)cc1OC [Compound 70, N-[4-Chloro-2-(4-hydroxy-benzylidene-hydrazinocarbonyl)-phenyl]-3,4-dimethoxy-benzamide]
20 | 0.57 |  | O=C(Nc1ccc(Cl)cc1C(=O)N/N=C/c1ccc(Cl)c(C(F)(F)F)c1)c1cccc(CN(CCO)CCO)c1 [Compound 407, 3-{[Bis-(2-hydroxy-ethyl)-amino]-methyl}-N-[4-chloro-2-(4-chloro-3-trifluoromethyl-benzylidene-hydrazinocarbonyl)-phenyl]-benzamide]
21 | < 0.3 |  | CCN(CC)CCSCc1cccc(C(=O)Nc2ccc(N3CCCCC3)cc2C(=O)N/N=C/c2ccc(F)cc2)c1 [Compound 877, 3-(2-Diethylamino-ethylsulfanylmethyl)-N-[2-(4-fluoro-benzylidene-hydrazinocarbonyl)-4-piperidin-1-yl-phenyl]-benzamide]
22 | 3.35 |  | CCN(CC)CCN(C)Cc1cccc(C(=O)Nc2ccc(OCCCN3CCCCC3)cc2C(=O)N/N=C/c2ccc(Cl)c(C(F)(F)F)c2)c1 [Compound 1038, N-[2-(4-Chloro-3-trifluoromethyl-benzylidene-hydrazinocarbonyl)-4-(3-piperidin-1-yl-propoxy)-phenyl]-3-{[(2-diethylamino-ethyl)-methyl-amino]-methyl}-benzamide]
23 | 8.42 |  | Cc1ccc(/C=N/NC(=O)c2ccccc2NC(=O)c2cccc(F)c2)cc1 [Compound 84, 3-Fluoro-N-[2-(4-methyl-benzylidene-hydrazinocarbonyl)-phenyl]-benzamide]
